How the values were obtained:
[1] = target: T1, Olfr556 (Mus musculus, UniProt B2RRG2); experiment: OR transcript level by RT-qPCR after in vivo odorant exposure; parameters: from tissue; host or cells: main olfactory epithelium of exposed mice; key to olfr556 candidate OR (RNAseq) confirmed by qPCR: The transcript downregulation of 21 out of the 26 olfactory receptor candidates obtained by RNAseq was confirmed by qPCR; false RNAseq positive candidates, namely OR candidates for which in fact mRNA was not downregulated following acetophenone exposure; details: for Olfr556 mRNA level relative to unexposed controls: 5% odorant, 5 hours, in vivo, RT-qPCR
T1 sequence (B2RRG2 1-324): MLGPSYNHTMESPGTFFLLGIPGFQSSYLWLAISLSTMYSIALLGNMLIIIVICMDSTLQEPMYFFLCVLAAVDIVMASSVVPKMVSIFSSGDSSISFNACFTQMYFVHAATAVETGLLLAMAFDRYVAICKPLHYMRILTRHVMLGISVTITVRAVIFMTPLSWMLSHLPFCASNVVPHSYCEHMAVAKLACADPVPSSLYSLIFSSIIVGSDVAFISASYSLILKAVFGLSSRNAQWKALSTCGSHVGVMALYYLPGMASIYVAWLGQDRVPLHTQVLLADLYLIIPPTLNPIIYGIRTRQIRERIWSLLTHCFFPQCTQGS
Description: (§1) In vivo exposure to odorant: Starting 48 h before experiments, mice were habituated to pure DMSO on a cotton ball. 200 μl were pipetted directly onto the cotton and placed in the cage, replacing any cotton that was already in the cage for nest-making purposes.
On the day of the experiment, mice receiving odorants were transferred to a different room, where they were exposed to a cotton ball on which 200 μl of odorant diluted in pure DMSO were deposited. […] […] If a number of different odorants were tested in the same experiment, a different overpressurized room would always be used for each odorant to avoid odor cross-contamination.
(§2) After odorant exposure, mice were killed by cervical dislocation and immediately decapitated. The main olfactory epithelia (MOE), were harvested in their entirety and transferred to a tube containing 600 μl of lysis buffer and β-mercaptoethanol (RNAeasy kit, Qiagen, following the manufacturer protocol) and a 0.5 cm diameter steel ball, and then put on ice. Samples were then homogenized using a FastPrep®-24 instrument (MP Biomedicals) at 6 m/s for 30 s and left on ice. RNA extraction was performed on all samples in parallel using the Qiagen RNeasy Mini® kit following the manufacturer's instructions. Two DNase treatments were performed on all samples: first using the Qiagen RNase-Free DNase Set® and then using the Life Technologies Ambion DNase I® kit. RNA samples were then aliquoted and stored at −80° C.
RNA concentrations were determined using an Amersham Ultrospec® 3100 Pro spectrophotometer, and RNA quality was evaluated with an Agilent Technologies 2100 Bioanalyzer®. Each reverse transcription was performed with 0.5 μg RNA using the Takara Primescript® kit, in a final volume of 10 μl. Primers for reverse transcription were equal mixtures of poly-T nucleotides and random hexamers. Negative controls (omitting the reverse transcriptase enzyme) were performed for each sample. 1/14th of the cDNA preparation was used for each triplicated qPCR reaction.
qPCR Ct values were analyzed using an in-house developed Microsoft Excel® macro file. Triplicate values were compared and outliers (values with a difference higher than 0.5 Ct to their nearest neighbor) were discarded. The number of conditions with an outlying value was always less than 10% of the total number of conditions. Ct values were converted to quantities relative to the maximum for each given gene. Selected reference genes were then analyzed for variance using the geNorm algorithm. All values were normalized with the olfactory tissue-specific genes Omp and Adcy3. β-Actin was used as a non-tissue-specific reference gene to control for differences in dissection between samples. […]

[2] = target: T1, Olfr556; details: expressed in HEK cells; previously shown; read-out: EC50 as agonist of Olfr556; cited from earlier work
[3] = tested on: Olfr1377; experiment: OR transcript level by RT-qPCR after in vivo odorant exposure; parameters: species or system mouse; key to olfr1377 candidate OR (RNAseq) confirmed by qPCR: The transcript downregulation of 21 out of the 26 olfactory receptor candidates obtained by RNAseq was confirmed by qPCR; false RNAseq positive candidates, namely OR candidates for which in fact mRNA was not downregulated following acetophenone exposure; details: for Olfr1377 mRNA level relative to unexposed controls: 5% odorant, 5 hours, in vivo, RT-qPCR
Description: as §1
(§3) On the day of the experiment, mice receiving odorants were transferred to a different room, where they were exposed to a cotton ball on which 200 μl of odorant diluted in pure DMSO were deposited. Exposures started in the morning between 8 and 10 am (that is two hours after lights were on) and mice were killed and dissected between 1 and 3 pm. […] If a number of different odorants were tested in the same experiment, a different overpressurized room would always be used for each odorant to avoid odor cross-contamination.
as §2
(§4) RNA concentrations were determined using an Amersham Ultrospec® 3100 Pro spectrophotometer, and RNA quality was evaluated with an Agilent Technologies 2100 Bioanalyzer®. […]
(§5) qPCR Ct values were analyzed using an in-house developed Microsoft Excel® macro file. […] Ct values were converted to quantities relative to the maximum for each given gene. Selected reference genes were then analyzed for variance using the geNorm algorithm. […]

[4] = tested on: Olfr160; experiment: as above; parameters: species or system mouse; key to olfr160 candidate OR (RNAseq) confirmed by qPCR: The transcript downregulation of 21 out of the 26 olfactory receptor candidates obtained by RNAseq was confirmed by qPCR; false RNAseq positive candidates, namely OR candidates for which in fact mRNA was not downregulated following acetophenone exposure; details: for Olfr160 mRNA level relative to unexposed controls: 5% odorant, 5 hours, in vivo, RT-qPCR
Description: as §1, §3, §2, §4, §5

[5] = tested on: Olfr160; details: dissociated neurons; previously shown; read-out: EC50 as agonist of Olfr160; cited from earlier work

CC(=O)c1ccccc1 [acetophenone]
olfr556 candidate OR (RNAseq) confirmed by qPCR ([1]; 5% acetophenone exposure): y | Olfr556 mRNA level relative to unexposed controls [1]: decrease | Olfr556 mRNA level relative to unexposed controls ([1]; listed as Acetophenone): downregulates | EC50 [2]: < 50 µM | olfr1377 candidate OR (RNAseq) confirmed by qPCR ([3]; 5% acetophenone exposure): y | Olfr1377 mRNA level relative to unexposed controls [3]: decrease | Olfr1377 mRNA level relative to unexposed controls ([3]; listed as Acetophenone): downregulates | olfr160 candidate OR (RNAseq) confirmed by qPCR ([4]; 5% acetophenone exposure): y | Olfr160 mRNA level relative to unexposed controls [4]: decrease | Olfr160 mRNA level relative to unexposed controls ([4]; listed as Acetophenone): downregulates | EC50 [5]: < 50 µM

Reference: patent publication US10473645B2, “Methods for identifying a receptor for a ligand and uses thereof” (UNIVERSITE DE GENEVE, priority 2014, dated 2019)
